Assay results published in patent US10179123B2, “2-aryl- and 2-arylalkyl-benzimidazoles as mIDH1 inhibitors” (BAYER PHARMA AKTIENGESELLSCHAFT, priority 2015, dated 2019).

Columns and labels:
[1] = target: mutated isocitrate dehydrogenase (mIDH) protein, LN229 R132H cells (Homo sapiens (Human), UniProt O75874, R132H); test: Mutant IDH1 cellular assay (2-HG in medium of LN229 R132H cells); type: cell-based; conditions: 2-HG levels in medium, 24 hours
Description: Mutant IDH1 Cellular Assay
They were harvested by trypsin and seeded into 96-well plates. Cells were incubated overnight at 37° C. in 5% CO2. The next day test compounds were added to each cell well. The final concentration of DMSO was 0.1% and DMSO controls were included. The plates were then placed in an incubator for 24 hours.
2-HG was measured according to Balss et al. (Acta Neuropathol (2012) 124: 883-891). Briefly, HClO4 was added to each well and the plates were centrifuged. Aliquots are removed and incubated with hydroxyglutarate dehydrogenase (HGDH), diaphorase, NAD+, and resazurin. The conversion of resazurin to resorufin was detected by fluorescence spectroscopy at Ex 540 nm Em 600 nm. The increase in fluorescence is proportional to 2-HG production. IC50 values are determined by interpolation from plots of relative fluorescence vs inhibitor concentration.

[2] = target: IDH1 R132H enzyme (Homo sapiens (Human), UniProt O75874, R132H); test: Mutant IDH1 R132H biochemical assay; conditions: NADPH consumption, luminescent readout; 1.5 nM enzyme, 1 μM NADPH, 250 μM α-KG, 30 minutes, 32° C.
Description: NADPH consumption was measured by luminescent readout. […] The final DMSO concentration was 2.4%. […] Luminescence was measured on a luminescent reader (10 seconds measuring time, 1 second integration period, 30% sensitivity). The decrease in luminescence is proportional to mIDH1 activity. IC50 values are determined by interpolation from plots of relative luminescence versus inhibitor concentration.

Chain of mutated isocitrate dehydrogenase (mIDH) protein, LN229 R132H cells (O75874 whole entry R132H): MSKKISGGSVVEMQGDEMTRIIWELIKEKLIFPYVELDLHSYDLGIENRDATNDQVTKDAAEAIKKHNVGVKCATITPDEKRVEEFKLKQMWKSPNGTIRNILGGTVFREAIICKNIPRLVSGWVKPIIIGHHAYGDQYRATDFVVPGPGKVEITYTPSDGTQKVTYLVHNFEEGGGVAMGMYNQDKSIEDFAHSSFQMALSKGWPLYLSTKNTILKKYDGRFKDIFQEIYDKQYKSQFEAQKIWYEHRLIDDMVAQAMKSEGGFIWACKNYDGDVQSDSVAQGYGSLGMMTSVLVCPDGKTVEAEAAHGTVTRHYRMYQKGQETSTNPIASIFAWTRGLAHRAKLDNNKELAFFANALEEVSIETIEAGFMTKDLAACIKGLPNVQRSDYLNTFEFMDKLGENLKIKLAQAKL
Chain of IDH1 R132H enzyme (O75874 whole entry R132H): as above

Row | SMILES | IC50 [1] | IC50 [2]
1 | COC(=O)c1ccc2c(c1)nc(Cc1ccc(C(C)C)cc1)n2[C@H]1C[C@@H](C)CC(C)(C)C1 (racemic) [Example 2-7, (±) methyl 2-[4-(propan-2-yl)benzyl]-1-[(cis)-3,3,5-trimethylcyclohexyl]-1H-benzimidazole-5-carboxylate] | 3000 nM | 330 nM
2 | COC(=O)c1cc2nc(Cc3ccc(OC(F)(F)F)cc3)n([C@H]3C[C@@H](C)CC(C)(C)C3)c2cc1C (racemic) [Example 2-18, (±) methyl 6-methyl-2-[4-(trifluoromethoxy)benzyl]-1-[(cis)-3,3,5-trimethylcyclohexyl]-1H-benzimidazole-5-carboxylate] | 1800 nM | 150 nM
3 | COC(=O)c1cc2nc(Cc3ccc(OC(F)(F)F)cc3)n([C@H]3C[C@@H](C)CC(C)(C)C3)c2cc1C (single isomer, unassigned) [Example 2-18-1, methyl 6-methyl-2-[4-(trifluoromethoxy)benzyl]-1-[(cis)-3,3,5-trimethylcyclohexyl]-1H-benzimidazole-5-carboxylate] | 2600 nM | 140 nM
4 | CC(C)Oc1ccc(Cc2nc3cc(C(=O)O)ccc3n2[C@H]2C[C@@H](C)CC(C)(C)C2)cc1 (stereo in doubt) [Example 2-32-2] | 2500 nM | 300 nM
5 | CC(C)Oc1ccc(Cc2nc3cc(C(=O)O)ccc3n2[C@@H]2C[C@H](C)CC(C)(C)C2)cc1 (stereo in doubt) [Example 2-32] | 2700 nM | 250 nM
6 | CC(C)c1ccc(Cc2nc3cc(C(=O)O)ccc3n2[C@@H]2C[C@H](C)CC(C)(C)C2)cc1 (stereo in doubt) [Example 2-33] | 350 nM | 50 nM
7 | C[C@H]1C[C@@H](n2c(Cc3ccc(C(F)(F)F)cc3)nc3cc(C(=O)O)ccc32)CC(C)(C)C1 (stereo in doubt) [Example 2-34] | 1900 nM | 120 nM
8 | C[C@H]1C[C@@H](n2c(Cc3ccc(C(C)(C)C)cc3)nc3cc(C(=O)O)ccc32)CC(C)(C)C1 (stereo in doubt) [Example 2-37] | 2500 nM | 50 nM
9 | C[C@H]1C[C@@H](n2c(Cc3cccc(OC(F)(F)F)c3)nc3cc(C(=O)O)ccc32)CC(C)(C)C1 (stereo in doubt) [Example 2-40] | – | 1800 nM
10 | Cc1nc(-c2ccccc2)sc1Cc1nc2cc(C(=O)O)ccc2n1[C@@H]1C[C@H](C)CC(C)(C)C1 (stereo in doubt) [Example 2-41] | – | 2300 nM
11 | Cc1[nH]c2ccc(F)cc2c1Cc1nc2cc(C(=O)O)ccc2n1[C@@H]1C[C@H](C)CC(C)(C)C1 (stereo in doubt) [Example 2-42] | – | 7000 nM
12 | C[C@H]1C[C@@H](n2c(Cc3cn(C)c4ccccc34)nc3cc(C(=O)O)ccc32)CC(C)(C)C1 (stereo in doubt) [Example 2-43] | – | 6600 nM
13 | Cc1cc2c(cc1C(=O)O)nc(Cc1ccc(OC(F)(F)F)cc1)n2[C@@H]1C[C@H](C)CC(C)(C)C1 (stereo in doubt) [Example 2-44-1] | 400 nM | 20 nM
14 | Cc1cc2c(cc1C(=O)O)nc(Cc1ccc(OC(F)(F)F)cc1)n2[C@H]1C[C@@H](C)CC(C)(C)C1 (stereo in doubt) [Example 2-44-2] | 2600 nM | 130 nM
15 | Cc1cc2c(cc1C(=O)O)nc(Cc1ccc(OC(F)(F)F)cc1)n2[C@@H]1C[C@H](C)CC(C)(C)C1 (stereo in doubt) [Example 2-44] | 170 nM | 70 nM
16 | COC(=O)c1ccc2c(nc(Cc3ccc(OC(F)(F)F)cc3)n2C2CC(C)(C)CC(C)(C)C2)c1F [Example 2-22, methyl 4-fluoro-1-(3,3,5,5-tetramethylcyclohexyl)-2-[4-(trifluoromethoxy)benzyl]-1H-benzimidazole-5-carboxylate] | – | 800 nM

Next, values leading:

Row | IC50 [1] | IC50 [2] | SMILES
17 | 160 nM | 30 nM | COc1cc2c(cc1C(=O)O)nc(Cc1ccc(OC(F)(F)F)cc1)n2[C@@H]1C[C@H](C)CC(C)(C)C1 (racemic) [Example 2-45]
18 | 210 nM | 30 nM | COc1cc2c(cc1CCC(=O)O)nc(Cc1ccc(OC(F)(F)F)cc1)n2[C@@H]1C[C@H](C)CC(C)(C)C1 (racemic) [Example 2-50]
19 | 1600 nM | 300 nM | COc1cc2c(cc1C(=O)O)nc(Cc1ccc(OC(F)(F)F)cc1)n2[C@@H]1C[C@H](C)CC(C)(C)C1 (single isomer, unassigned) [Example 2-45-1]
20 | 3600 nM | 200 nM | COc1cc2c(cc1CCC(=O)O)nc(Cc1ccc(OC(F)(F)F)cc1)n2[C@@H]1C[C@H](C)CC(C)(C)C1 (single isomer, unassigned) [Example 2-50-1]
21 | 120 nM | 20 nM | COc1cc2c(cc1C(=O)O)nc(Cc1ccc(OC(F)(F)F)cc1)n2[C@H]1C[C@@H](C)CC(C)(C)C1 (stereo in doubt) [Example 2-45-2]
22 | 600 nM | 120 nM | CC(C)Oc1cc2c(cc1C(=O)O)nc(Cc1ccc(OC(F)(F)F)cc1)n2[C@@H]1C[C@H](C)CC(C)(C)C1 (stereo in doubt) [Example 2-46-1]
23 | – | 500 nM | CC(C)Oc1cc2c(cc1C(=O)O)nc(Cc1ccc(OC(F)(F)F)cc1)n2[C@H]1C[C@@H](C)CC(C)(C)C1 (stereo in doubt) [Example 2-46-2]
24 | 1500 nM | 330 nM | CC(C)Oc1cc2c(cc1C(=O)O)nc(Cc1ccc(OC(F)(F)F)cc1)n2[C@@H]1C[C@H](C)CC(C)(C)C1 (stereo in doubt) [Example 2-46]
25 | – | 2000 nM | C[C@H]1C[C@@H](n2c(Cc3ccc(OC(F)(F)F)cc3)nc3cc(C(=O)O)c(OCC(F)(F)F)cc32)CC(C)(C)C1 (stereo in doubt) [Example 2-47-1]
26 | – | 650 nM | C[C@@H]1C[C@H](n2c(Cc3ccc(OC(F)(F)F)cc3)nc3cc(C(=O)O)c(OCC(F)(F)F)cc32)CC(C)(C)C1 (stereo in doubt) [Example 2-47-2]
27 | – | 1000 nM | C[C@H]1C[C@@H](n2c(Cc3ccc(OC(F)(F)F)cc3)nc3cc(C(=O)O)c(OCC(F)(F)F)cc32)CC(C)(C)C1 (stereo in doubt) [Example 2-47]
28 | 280 nM | 80 nM | Cc1cc2c(cc1CCC(=O)O)nc(Cc1ccc(OC(F)(F)F)cc1)n2[C@@H]1C[C@H](C)CC(C)(C)C1 (stereo in doubt) [Example 2-49]
29 | 380 nM | 20 nM | COc1cc2c(cc1CCC(=O)O)nc(Cc1ccc(OC(F)(F)F)cc1)n2[C@H]1C[C@@H](C)CC(C)(C)C1 (stereo in doubt) [Example 2-50-2]
30 | 800 nM | 80 nM | CC1(C)CC(n2c(Cc3ccc(OC(F)(F)F)cc3)nc3c(F)c(C(=O)O)ccc32)CC(C)(C)C1 [Example 2-48]
31 | 1800 nM | 80 nM | CC1(C)CC(n2c(Cc3ccc(OC(F)(F)F)cc3)nc3c(F)c(CCC(=O)O)ccc32)CC(C)(C)C1 [Example 2-52, 3-{4-fluoro-1-(3,3,5,5-tetramethylcyclohexyl)-2-[4-(trifluoromethoxy)benzyl]-1H-benzimidazol-5-yl}Propanoic Acid]
